Data taken from patent US6737383B1, “Herbicidal oxadiazolidines” (priority 1999, dated 2004).

Experiments:
rice = assay: Test B flood test rice; format: in vivo, Oryza sativa
Outline: (§1)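 Plants were grown to the 2-leaf stage before treatment with test chemical, then held in a greenhouse for twelve to sixteen days. Injury was visually rated against untreated controls on a 0–10 scale, where 0 is no effect and 10 is complete control.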

wheat = assay: Test B pre/postemergence wheat; format: in vivo, Triticum aestivum; conditions: for Plant response rating, Wheat: scale of 0 to 10 where 0 is no effect and 10 is complete control
Outline: (§2)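 Response is a visual 0-to-10 score relative to untreated plants, where 0 means no effect and 10 means complete control, taken twelve to sixteen days after application. Treatments went onto soil at planting and onto foliage of 1- to 4-leaf plants, using a surfactant-containing non-phytotoxic solvent.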

sugar beet = assay: Test B pre/postemergence sugar beet; format: in vivo, Beta vulgaris; conditions: for Plant response rating, Sugarbeets: scale of 0 to 10 where 0 is no effect and 10 is complete control
Outline: as §2

pigweed = assay: Test B pre/postemergence pigweed; format: in vivo, Amaranthus retroflexus; conditions: for Plant response rating, Redroot pigweed: scale of 0 to 10 where 0 is no effect and 10 is complete control
Outline: as §2

morningglory = assay: Test B pre/postemergence morningglory; format: in vivo, Ipomoea hederacea; conditions: for Plant response rating, Morningglory: scale of 0 to 10 where 0 is no effect and 10 is complete control
Outline: as §2

purple nutsedge = assay: Test B pre/postemergence purple nutsedge; format: in vivo, Cyperus rotundus; conditions: for Plant response rating, Nutsedge: scale of 0 to 10 where 0 is no effect and 10 is complete control
Outline: as §2

velvetleaf = assay: Test B pre/postemergence velvetleaf; format: in vivo, Abutilon theophrasti; conditions: for Plant response rating, Velvetleaf: scale of 0 to 10 where 0 is no effect and 10 is complete control
Outline: as §2

corn = assay: Test B pre/postemergence corn; format: in vivo, Zea mays
Outline: as §2

wild oat = assay: Test B pre/postemergence wild oat; format: in vivo, Avena fatua; conditions: for Plant response rating, Wild oats: scale of 0 to 10 where 0 is no effect and 10 is complete control
Outline: as §2

smallflower flatsedge = assay: Test B flood test smallflower flatsedge; format: in vivo, Cyperus difformis
Outline: as §1

rape = assay: Test B pre/postemergence rape; format: in vivo, Brassica napus; conditions: for Plant response rating, Rape: scale of 0 to 10 where 0 is no effect and 10 is complete control
Outline: as §2

blackgrass = assay: Test B pre/postemergence blackgrass; format: in vivo, Alopecurus myosuroides
Outline: as §2

duck salad = assay: Test B flood test duck salad; format: in vivo, Heteranthera limosa
Outline: as §1

bamyardgrass = assay: Test B flood test barnyardgrass; format: in vivo, Echinochloa crus-galli
Outline: as §1

cocklebur = assay: Test B pre/postemergence cocklebur; format: in vivo, Xanthium strumarium
Outline: as §2

crabgrass = assay: Test B pre/postemergence crabgrass; format: in vivo, Digitaria sanguinalis
Outline: as §2

[1] = Rate 62 g/ha, flood test species, Pre-emergence, visual evaluation after twelve to sixteen days
[2] = Rate 125 g/ha, under heading Pre-emergence, flood test species, visual evaluation after twelve to sixteen days
[3] = Rate 250 g/ha, Pre-emergence (flood test species), scale 0 to 10, 0 is no effect, 10 is complete control
[4] = Rate 500 g/ha, Pre-emergence, flood test species, scale 0 to 10 (0 no effect, 10 complete control)
[5] = Postemergence, Rate 250 g/ha, scale 0 to 10
[6] = Preemergence, Rate 250 g/ha, scale 0 to 10, 0 is no effect, 10 is complete control
[7] = Preemergence, Rate 500 g/ha, scale 0 to 10, 0 is no effect, 10 is complete control
[8] = Rate 62 g/ha, Postemergence, scale 0 to 10 (0 no effect, 10 complete control)
[9] = Rate 125 g/ha, Postemergence, scale 0 to 10, 0 is no effect, 10 is complete control
[10] = Postemergence, Rate 500 g/ha, scale of 0 to 10 where 0 is no effect and 10 is complete control
[11] = Preemergence, Rate 62 g/ha, scale of 0 to 10 where 0 is no effect and 10 is complete control
[12] = Preemergence, Rate 125 g/ha, scale of 0 to 10 where 0 is no effect and 10 is complete control

Structure (SMILES): CC(C)N(C(=O)n1oc(=O)n(CCS(C)(=O)=O)c1=O)c1ccc(F)cc1 [Compound 453]
- Plant response rating, Rice (0 to 10 scale, 0 is no effect, 10 is complete control) (rice; [1]): 0
- Rice plant response rating (0 to 10 scale, 0 is no effect, 10 is complete control) (rice; [2]): 0
- Rice plant response rating (rice; [3]): 0
- Rice plant response rating (rice; [4]): 0
- Wheat plant response rating (wheat; [5]): 0
- Plant response rating, Wheat (wheat; Preemergence, Rate 62 g/ha): 0
- Plant response rating, Wheat (wheat; Preemergence, Rate 125 g/ha): 0
- Wheat plant response rating (wheat; [6]): 3
- Wheat plant response rating (wheat; [7]): 6
- Wheat plant response rating (wheat; [8]): 0
- Wheat plant response rating (wheat; [9]): 0
- Sugarbeets plant response rating (sugar beet; [5]): 0
- Plant response rating, Sugarbeets (sugar beet; Preemergence, Rate 62 g/ha): 0
- Plant response rating, Sugarbeets (sugar beet; Preemergence, Rate 125 g/ha): 0
- Sugarbeets plant response rating (sugar beet; [6]): 2
- Sugarbeets plant response rating (sugar beet; [7]): 5
- Sugarbeets plant response rating (sugar beet; [8]): 0
- Sugarbeets plant response rating (sugar beet; [9]): 0
- Redroot pigweed plant response rating (pigweed; [5]): 0
- Plant response rating, Redroot pigweed (pigweed; Preemergence, Rate 62 g/ha): 0
- Plant response rating, Redroot pigweed (pigweed; Preemergence, Rate 125 g/ha): 4
- Redroot pigweed plant response rating (pigweed; [6]): 6
- Redroot pigweed plant response rating (pigweed; [7]): 10
- Redroot pigweed plant response rating (pigweed; [8]): 0
- Redroot pigweed plant response rating (pigweed; [9]): 0
- Morningglory plant response rating (morningglory; [5]): 2
- Plant response rating, Morningglory (morningglory; Preemergence, Rate 62 g/ha): 0
- Plant response rating, Morningglory (morningglory; Preemergence, Rate 125 g/ha): 0
- Morningglory plant response rating (morningglory; [6]): 0
- Morningglory plant response rating (morningglory; [7]): 3
- Morningglory plant response rating (morningglory; [8]): 0
- Morningglory plant response rating (morningglory; [9]): 0
- Nutsedge plant response rating (purple nutsedge; [5]): 0
- Plant response rating, Nutsedge (purple nutsedge; Preemergence, Rate 62 g/ha): 0
- Plant response rating, Nutsedge (purple nutsedge; Preemergence, Rate 125 g/ha): 0
- Nutsedge plant response rating (purple nutsedge; [6]): 0
- Nutsedge plant response rating (purple nutsedge; [8]): 0
- Nutsedge plant response rating (purple nutsedge; [9]): 0
- Velvetleaf plant response rating (velvetleaf; [5]): 0
- Plant response rating, Velvetleaf (velvetleaf; Preemergence, Rate 62 g/ha): 0
- Plant response rating, Velvetleaf (velvetleaf; Preemergence, Rate 125 g/ha): 0
- Velvetleaf plant response rating (velvetleaf; [6]): 2
- Velvetleaf plant response rating (velvetleaf; [7]): 6
- Velvetleaf plant response rating (velvetleaf; [8]): 0
- Velvetleaf plant response rating (velvetleaf; [9]): 0
- Corn plant response rating (corn; [5]): 0
- Corn plant response rating (corn; [10]): 0
- Plant response rating, Corn (corn; [11]): 0
- Plant response rating, Corn (corn; [12]): 0
- Corn plant response rating (corn; [6]): 0
- Corn plant response rating (corn; [7]): 3
- Corn plant response rating (corn; [8]): 0
- Corn plant response rating (corn; [9]): 0
- Wild oats plant response rating (wild oat; [5]): 0
- Plant response rating, Wild oats (wild oat; Preemergence, Rate 62 g/ha): 0
- Plant response rating, Wild oats (wild oat; Preemergence, Rate 125 g/ha): 0
- Wild oats plant response rating (wild oat; [6]): 2
- Wild oats plant response rating (wild oat; [7]): 8
- Wild oats plant response rating (wild oat; [8]): 0
- Wild oats plant response rating (wild oat; [9]): 0
- Plant response rating, S. Flatsedge (0 to 10 scale, 0 is no effect, 10 is complete control) (smallflower flatsedge; [1]): 0
- S. Flatsedge plant response rating (0 to 10 scale, 0 is no effect, 10 is complete control) (smallflower flatsedge; [2]): 0
- S. Flatsedge plant response rating (smallflower flatsedge; [3]): 0
- S. Flatsedge plant response rating (smallflower flatsedge; [4]): 0
- Rape plant response rating (rape; [5]): 0
- Plant response rating, Rape (rape; Preemergence, Rate 62 g/ha): 0
- Plant response rating, Rape (rape; Preemergence, Rate 125 g/ha): 0
- Rape plant response rating (rape; [6]): 0
- Rape plant response rating (rape; [7]): 3
- Rape plant response rating (rape; [8]): 0
- Rape plant response rating (rape; [9]): 0
- Blackgrass plant response rating (blackgrass; [5]): 6
- Blackgrass plant response rating (blackgrass; [10]): 6
- Plant response rating, Blackgrass (blackgrass; [11]): 0
- Plant response rating, Blackgrass (blackgrass; [12]): 0
- Blackgrass plant response rating (blackgrass; [6]): 3
- Blackgrass plant response rating (blackgrass; [7]): 5
- Blackgrass plant response rating (blackgrass; [8]): 0
- Blackgrass plant response rating (blackgrass; [9]): 0
- Plant response rating, Ducksalad (0 to 10 scale, 0 is no effect, 10 is complete control) (duck salad; [1]): 0
- Ducksalad plant response rating (0 to 10 scale, 0 is no effect, 10 is complete control) (duck salad; [2]): 0
- Ducksalad plant response rating (duck salad; [3]): 0
- Ducksalad plant response rating (duck salad; [4]): 0
- Plant response rating, Barnyardgrass (0 to 10 scale, 0 is no effect, 10 is complete control) (bamyardgrass; [1]): 0
- Barnyardgrass plant response rating (0 to 10 scale, 0 is no effect, 10 is complete control) (bamyardgrass; [2]): 0
- Barnyardgrass plant response rating (bamyardgrass; [3]): 0
- Barnyardgrass plant response rating (bamyardgrass; [4]): 0
- Cocklebur plant response rating (cocklebur; [5]): 0
- Cocklebur plant response rating (cocklebur; [10]): 0
- Plant response rating, Cocklebur (cocklebur; [11]): 0
- Plant response rating, Cocklebur (cocklebur; [12]): 0
- Cocklebur plant response rating (cocklebur; [6]): 0
- Cocklebur plant response rating (cocklebur; [7]): 0
- Cocklebur plant response rating (cocklebur; [8]): 0
- Cocklebur plant response rating (cocklebur; [9]): 0
- Crabgrass plant response rating (crabgrass; [5]): 4
- Crabgrass plant response rating (crabgrass; [10]): 10
- Plant response rating, Crabgrass (crabgrass; [11]): 5
- Plant response rating, Crabgrass (crabgrass; [12]): 6
- Crabgrass plant response rating (crabgrass; [6]): 6
- Crabgrass plant response rating (crabgrass; [7]): 7
- Crabgrass plant response rating (crabgrass; [8]): 0
